Measured values as given in US6716822B2, “Therapeutic agent for ischemia which inhibits apoptosis under ischemic condition” (priority 2000, dated 2004).

Legend:
Sprague-Dawley rats = assay: Effect of antibiotics on ischemic cells: rat left anterior descending artery ligature, infarct/ischemic area by Evans blue/TTC staining; type: in vivo; details: 45 mg/kg peritoneally, LAD ligature 2 hours
[1] = Acute toxicity test, subcutaneous injection; details: mouse, in vivo, sc, male C57BL/6 mice, dead mice counted through 1-7 days
From the text: All antibiotics used in the present invention, except for an aminoglycoside antibiotic of geneticin, were not subject to acute toxicity tests since they have been clinically approved for their safety. In case of geneticin, after subcutaneously injecting geneticin into male C57BL/6 mice, dead mice were counted through 1-7 days.

SMILES | AR/LV (percentage of ischemic area per cross-sectional area of heart) (Sprague-Dawley rats) | IS/(IS + AR) (percentage of infarct area per sum of infarct and ischemic area) (Sprague-Dawley rats) | IS/LV (percentage of infarct area per cross-sectional area of heart) (Sprague-Dawley rats) | LD50 [1]
C[C@H]1c2cccc(O)c2C(=O)C2=C(O)[C@]3(O)C(=O)C(C(N)=O)=C(O)[C@@H](N(C)C)[C@@H]3[C@@H](O)[C@@H]21 [doxycycline] | 41.8 ± 4.3% | 29.3 ± 4.2% | 16.9 ± 2.5% | –
CN[C@@H]1[C@@H](O)[C@@H](O[C@@H]2[C@@H](O)[C@H](O[C@H]3O[C@H]([C@@H](C)O)[C@@H](O)[C@H](O)[C@H]3N)[C@@H](N)C[C@H]2N)OC[C@]1(C)O [geneticin] | 40.0 ± 4.1% | 24.6 ± 2.1% | 12.5 ± 1.8% | ~3800 mg/kg
